# How the values were obtained:
# Assay type in all cases: physicochemical
# [1] = Dynamic vapor sorption (DVS) analysis
# Protocol: DVS was measured using automated gravimetric vapor sorption analyzer equipped with Cahn D200 ultra-microbalance (DVS Intrinsic apparatus, Surface Measurement System Ltd., UK). First, a sample of 10-20 mg was put in a sample pan and hung on a hang-down wire, and measurement was started when the weight and humidity reached equilibrium. In one cycle, relative humidity was increased from 0% to 90% and then dropped back to 0%. Two cycles were carried out. The experiment was carried out in a way that the relative humidity was increased at 10% increment using a dm/dt method. The experiment was carried out at room temperature (25° C.)
# [2] = Thermogravimetric analysis (TGA)
# Protocol: The TGA was measured using Mettler Toledo TGA/DSC 1 module. About 4-8 mg of the sample is weighed and put into a 100 μL Al crucible (flat-bottomed aluminum crucibles). Then, TGA measurement is performed while the sample is heated from 30° C. to 350° C. at a rate of 10° C./min. During the measurement, nitrogen gas is supplied to the inside of the instrument at a rate of 80 mL/min to prevent the inflow of oxygen and other gases. Data collection and evaluation were performed using the software STARe.
# [3] = Stability assessment by HPLC after storage; settings: for HPLC content, Accelerated condition (40° C./75% RH): open state; for HPLC content, Accelerated condition (40° C./75% RH) / HPLC content, Harsh condition (80° C.): in % (unit assumed); for HPLC content, Harsh condition (80° C.): sealed state, oven 80° C.
# Protocol: About 10-30 mg of the sample was stored for 4 weeks in an open state under the accelerated condition (40° C., 75% RH) or in a sealed state under the harsh condition in an oven at 80° C. [table]
structure (smiles),measurement,setting,value
"CC(C)C(=O)N([C@H]1C[C@@H](C(=O)N2CCOCC2)N(C(=O)[C@@H]2CN(C(C)(C)C)C[C@H]2c2ccc(Cl)cc2)C1)[C@H]1CC[C@@H](C)CC1 [Example 1, N-((3S,5S)-1-((3S,4R)-1-(tert-butyl)-4-(4-chlorophenyl)pyrrolidine-3-carbonyl)-5-(morpholine-4-carbonyl)pyrrolidin-3-yl)-N-((1s,4R)-4-methylcyclohexyl)isobutyramide]",total weight gain observed between 0-90% RH,"[1]; DVS, 25° C., 0-90% RH, two cycles",0.2 % w/w
same,physical change after DVS (XRPD pattern compared with initial compound),[1]; XRPD after DVS analysis,no physical change occurred
same,temperature up to which thermally stable,"[2]; TGA, error of ±5° C.",up to 270 °C
same,weight loss in TGA before degradation,[2]; heated from 30° C. to 350° C. at 10° C./min,no weight loss was observed before degradation
same,chemical stability,"[3]; accelerated (40° C., 75% RH) and harsh (80° C.) condition, 4 weeks",showed chemical stability for 4 weeks
same,decrease in the content until week 4,"[3]; accelerated condition (40° C., 75% RH) and closed state (harsh condition, 80° C.), until week 4",about 1.3%
same,decrease in the content under the accelerated condition,"[3]; accelerated condition, for 4 weeks",less than 1%
same,"HPLC content, Initial","[3]; initial, before storage",97.8%
same,"HPLC content, Accelerated condition (40° C./75% RH)",[3]; Day 3,97.51
same,"HPLC content, Accelerated condition (40° C./75% RH)",[3]; Week 1,96.64
same,"HPLC content, Accelerated condition (40° C./75% RH)",[3]; Week 2,97.73
same,"HPLC content, Accelerated condition (40° C./75% RH)",[3]; Week 4,97.47
same,"HPLC content, Harsh condition (80° C.)",[3]; Day 3,97.46
same,"HPLC content, Harsh condition (80° C.)",[3]; Week 1,97.34
same,"HPLC content, Harsh condition (80° C.)",[3]; Week 2,96.94
same,"HPLC content, Harsh condition (80° C.)",[3]; Week 4,96.47

# Reference: US20240043407A1, “CRYSTALLINE FORM I OF MELANOCORTIN RECEPTOR AGONIST COMPOUND AND METHOD FOR PREPARING SAME” (LG CHEM, LTD., priority 2020, published 2024)
